Experimental data published in US20260167656A1, “PHOSPHORAMIDATE COMPOUNDS AND USES THEREOF” (ALLORION THERAPEUTICS INC, priority 2022, published 2026).

Experiments:
[1] = system: non-small cell lung cancer cell line H460; test: H460 proliferation assay in the presence of 3 uM ASP9521 (AKR1C3 specific inhibitor); type: cell-based, human; settings: H460 cells, CellTiter-Glo, 72 hours, in the presence of 3 uM ASP9521 added 4 hours prior to compounds; read-out: CTG H460: Avg IC50 (nM) [Assay Condition: ASP9521]
Outline: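 H460 cells pre-incubated 24 h, then exposed to compounds for 72 h at 37 °C, 5% CO2. Viability read by CellTiter-Glo. ASP9521 (3 uM, AKR1C3 inhibitor) added 4 h before compounds.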

[2] = system: non-small cell lung cancer cell line H460; test: In vitro human cancer cell line cytotoxicity (proliferation) assay in H460, CellTiter-Glo, 72 hours; type: cell-based; settings: H460 cells, DMSO condition (no AKR1C3 inhibitor), read-out: CTG H460: Avg IC50 (nM) [Assay Condition: DMSO]
Outline: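 H460 cells were seeded at 3×10^3 per well and grown 24 h at 37 °C, 5% CO2 before compound addition from 10 mM DMSO stocks. After 72 h further incubation, viability was measured by CellTiter-Glo, and IC50 values in nM were derived from the proliferation data.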

Row | SMILES | IC50 [1] [nM] | IC50 [2] [nM] | IC50 ([2]; Homo sapiens, NCI-H460, 72 h) [nM]
1 | O=[N+]([O-])c1ccc2c(c1Oc1cccc(-c3cnn(C4CC4)c3)c1)CCC2OP(=O)(N1CC1)N1CC1 (stereo not drawn) [Example 95] | 1310 | 50 to 100 | 
2 | O=[N+]([O-])c1ccc2c(c1Oc1cccc(-c3cnn(C4CC4)c3)c1)CCC2OP(=O)(N1CC1)N1CC1 (stereo not drawn) [Example 96] | 5270 | 10 to 50 | 
3 | O=C(c1cccc(Oc2c([N+](=O)[O-])ccc3c2CCC3OP(=O)(N2CC2)N2CC2)c1)N1CCC1 (stereo not drawn) [Example 97] | 497 |  | < 10
4 | O=C(c1cccc(Oc2c([N+](=O)[O-])ccc3c2CCC3OP(=O)(N2CC2)N2CC2)c1)N1CCC1 (stereo not drawn) [Example 98] | 205 | < 10 | 
5 | O=C(c1cccc(Oc2c([N+](=O)[O-])ccc3c2CCC3OP(=O)(N2CC2)N2CC2)c1)N1CCCC1 (stereo not drawn) [Example 99] | 1010 |  | < 10
6 | O=C(c1cccc(Oc2c([N+](=O)[O-])ccc3c2CCC3OP(=O)(N2CC2)N2CC2)c1)N1CCCC1 (stereo not drawn) [Example 100] | 618 | < 10 | 
7 | O=C(c1cccc(Oc2c([N+](=O)[O-])ccc3c2CCC3OP(=O)(N2CC2)N2CC2)c1)N1CCC(F)(F)C1 (stereo not drawn) [Example 101] | 1210 |  | < 10
8 | O=C(c1cccc(Oc2c([N+](=O)[O-])ccc3c2CCC3OP(=O)(N2CC2)N2CC2)c1)N1CCC(F)(F)C1 (stereo not drawn) [Example 102] | 919 | < 10 | 
9 | O=C(c1cccc(Oc2c([N+](=O)[O-])ccc3c2CCC3OP(=O)(N2CC2)N2CC2)c1)N1CCC(F)(F)CC1 (stereo not drawn) [Example 103] | 811 |  | < 10
10 | O=C(c1cccc(Oc2c([N+](=O)[O-])ccc3c2CCC3OP(=O)(N2CC2)N2CC2)c1)N1CCC(F)(F)CC1 (stereo not drawn) [Example 104] | 180 | < 10 | 
11 | O=C(c1cccc(Oc2c([N+](=O)[O-])ccc3c2CCC3OP(=O)(N2CC2)N2CC2)c1)N1CCCOCC1 (stereo not drawn) [Example 105] | 1300 |  | 10 to 50
12 | O=C(c1cccc(Oc2c([N+](=O)[O-])ccc3c2CCC3OP(=O)(N2CC2)N2CC2)c1)N1CCCOCC1 (stereo not drawn) [Example 106] | 416 | < 10 | 
13 | O=C1CCCCN1c1cccc(Oc2c([N+](=O)[O-])ccc3c2CCC3OP(=O)(N2CC2)N2CC2)c1 (stereo not drawn) [Example 107] | 6500 |  | 10 to 50
14 | O=C1CCCCN1c1cccc(Oc2c([N+](=O)[O-])ccc3c2CCC3OP(=O)(N2CC2)N2CC2)c1 (stereo not drawn) [Example 108] | 1710 | < 10 | 
15 | O=C1COCCN1c1cccc(Oc2c([N+](=O)[O-])ccc3c2CCC3OP(=O)(N2CC2)N2CC2)c1 (stereo not drawn) [Example 109] | 6450 |  | 10 to 50
16 | O=C1COCCN1c1cccc(Oc2c([N+](=O)[O-])ccc3c2CCC3OP(=O)(N2CC2)N2CC2)c1 (stereo not drawn) [Example 110] | 2420 | < 10 | 
17 | O=C1CCCN1c1cccc(Oc2c([N+](=O)[O-])ccc3c2CCC3OP(=O)(N2CC2)N2CC2)c1 (stereo not drawn) [Example 111] | 1100 |  | < 10
18 | O=C1CCCN1c1cccc(Oc2c([N+](=O)[O-])ccc3c2CCC3OP(=O)(N2CC2)N2CC2)c1 (stereo not drawn) [Example 112] | 243 | < 10 | 
19 | O=[N+]([O-])c1ccc2c(c1Oc1cccc(-n3cccn3)c1)CCC2OP(=O)(N1CC1)N1CC1 (stereo not drawn) [Example 113] | 650 |  | < 10
20 | O=[N+]([O-])c1ccc2c(c1Oc1cccc(-n3cccn3)c1)CCC2OP(=O)(N1CC1)N1CC1 (stereo not drawn) [Example 114] | 1280 | < 10 | 
21 | O=[N+]([O-])c1ccc2c(c1Oc1cccc(-n3ccc(C4CC4)n3)c1)CCC2OP(=O)(N1CC1)N1CC1 (stereo not drawn) [Example 115] | 4730 |  | 10 to 50
22 | O=[N+]([O-])c1ccc2c(c1Oc1cccc(-n3ccc(C4CC4)n3)c1)CCC2OP(=O)(N1CC1)N1CC1 (stereo not drawn) [Example 116] | 5560 | 10 to 50 | 
23 | Cn1cnc(-c2cccc(Oc3c([N+](=O)[O-])ccc4c3CCC4OP(=O)(N3CC3)N3CC3)c2)cc1=O (stereo not drawn) [Example 117] | 1030 | ≥ 100 | 
24 | Cn1cnc(-c2cccc(Oc3c([N+](=O)[O-])ccc4c3CCC4OP(=O)(N3CC3)N3CC3)c2)cc1=O (stereo not drawn) [Example 118] | 4510 | 10 to 50 | 
25 | Cc1noc(-c2cccc(Oc3c([N+](=O)[O-])ccc4c3CCC4OP(=O)(N3CC3)N3CC3)c2)n1 (stereo not drawn) [Example 119] | 644 |  | < 10
26 | Cc1noc(-c2cccc(Oc3c([N+](=O)[O-])ccc4c3CCC4OP(=O)(N3CC3)N3CC3)c2)n1 (stereo not drawn) [Example 120] | 2080 | < 10 | 
27 | Cn1c(=O)oc2cc(Oc3c([N+](=O)[O-])ccc4c3CCC4OP(=O)(N3CC3)N3CC3)ccc21 (stereo not drawn) [Example 121] | 33.8 |  | < 10
